This experiment has as its system 996289-038-R-J1-PDC spheroid viability. In words: Anticancer human tumor 996289-038-R-J1-PDC patient-derived colon adenocarcinoma cell line growth inhibition [PI3K]. The following applies: spheroids with HUVEC and MSC; for viability, T/C: stronger effect = lower value. From the text:
Combinatorial screen of targeted agents with the PI3K inhibitors inavolisib, alpelisib, duvelisib, and copanlisib in multi-cell type tumor spheroids
A high-throughput screen of multi-cell type tumor spheroids was designed to identify active combinations of targeted small molecules and PI3K pathway inhibitors. Complex spheroids include a stromal component modeled by human endothelial cells (HUVEC) and fibroblasts modeled by human mesenchymal stem cells (MSCs). The concentration ranges selected for each drug and investigational agent were based upon clinically achievable concentrations if the clinical Cmax of the agent was known.
Compounds. The drugs and investigational agents: inavolisib (NSC800729), alpelisib (NSC765974), duvelisib (NSC772469), copanlisib (NSC816437), ipatasertib (NSC767898), afuresertib (NSC778305), talazoparib (NSC767125), sapanisertib (NSC764658), selumetinib (NSC741078), tovorafenib (DAY101, NSC766906), vemurafenib (NSC761431), ravoxertinib (NSC781343), sotorasib (NSC818433), MRTX1133 (NSC 836407), abemaciclib (NSC 768073), palbociclib (NSC758247), venetoclax (NSC 766270), SY5609 (NSC837396), enzalutamide (NSC755605), and darolutamide (NSC825331), were obtained from the National Cancer Institute (NCI) Developmental Therapeutics Program Chemical Repository. The FDA-approved anticancer drug set is available from the NCI Developmental Therapeutics Program. […] The stock solutions were prepared in dimethyl sulfoxide (DMSO, Sigma-Aldrich, St. Louis, MO, cat. D2650) at 800-fold the tested concentration and stored at -70 degrees C prior to their use. All drugs and investigational agents were tested over a range starting from a high concentration at or near the clinical Cmax and decreasing in half-log increments. If the clinical Cmax for an agent had not been determined, the highest concentration tested was 10 microM.
Cell Culture. All cells were maintained in an incubator at 37 degrees C and 5% CO2 with 95% humidity. The PDC lines were cultured according to standard operating procedures established by the NCI PDMR (https://pdmr.cancer.gov/sops/default.htm). All PDCs were thawed and cultured in Matrigel-coated flasks prepared with a working solution of 1X Ham's F-12 nutrient mix, without supplementation (Invitrogen, Waltham, MA, cat. 11765054), 100 U/mL penicillin-streptomycin (Invitrogen, cat. 15140122), and 2.5% Matrigel (Corning Inc., Corning, NY, cat. 354248) for the first three passages. The 354836-022-R-J1-PDC, 475296-252-R-J1-PDC, and 997726-040-R-J2-PDC lines were cultured in 6A media, which includes advanced DMEM/F-12 (Thermo Fisher Scientific, cat. 12634028), 10 mM HEPES (Thermo Fisher Scientific, cat. 15630080), 1X GlutaMAX supplement (Thermo Fisher Scientific, cat. 35050061), 0.1 mg/mL primocin (InvivoGen, San Diego, CA, cat. ant-pm-2), 10% defined fetal bovine serum, heat inactivated (HyClone Laboratories Inc., Logan, UT, cat. SH30070.03HI), 50% L-WRN conditioned media (ATCC, cat. CRL-3276), 1.25 mM N-Acetyl-L-cysteine (Sigma-Aldrich, cat. A9165), 10 mM nicotinamide (Sigma-Aldrich, cat. N0636), 1X B-27 supplement (Thermo Fisher Scientific, cat. 17504044), 1X N-2 supplement (Thermo Fisher Scientific, cat. 17502048), and 10 microM Y-27632 dihydrochloride (Tocris Bioscience, Bristol, United Kingdom, cat. 1254). The 624824-186-R-J2-PDC line was cultured in 6C/Colon 1B media, which includes all 6A media components plus 50 ng/mL human EGF recombinant protein (Thermo Fisher Scientific, cat. PHG0311). […]

Two compounds from PubChem BioAssay AID1963965 (Molecular Pharmacology Branch, DTP, NCI, 2024) can be followed below.

Each structure is given as a SMILES string.
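Further: spheroids exposed to compounds for seven days before viability read.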
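Wherever viability, T/C is given: luminescence used as a proxy for viable cell amount; percent viability relative to DMSO vehicle control as 100%.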

Consider `Cn1ncnc1[C@H]1c2n[nH]c(=O)c3cc(F)cc(c23)N[C@@H]1c1ccc(F)cc1` + Cc1nc(NC(=O)N2CCCC2C(N)=O)sc1-c1ccnc(C(C)(C)C(F)(F)F)c1, for which the half-maximal inhibitory concentration (IC50) is, setting by setting: (curve of first compound, second compound 0.0316 µM) greater than 100 nM; (curve of first compound, second compound 0.1 µM) greater than 100 nM; (curve of first compound, second compound 0.316 µM) greater than 100 nM; (curve of first compound, second compound 1 µM) greater than 100 nM; (curve of first compound, second compound 3.16 µM) greater than 100 nM; (curve of first compound, second compound 10 µM) less than 0.316 nM. In addition, the viability, T/C is 120% (second compound 0.0316 µM, first compound 0.000316 µM); 117% (second compound 0.0316 µM, first compound 0.001 µM); 97.9% (second compound 0.0316 µM, first compound 0.00316 µM); 90.3% (second compound 0.0316 µM, first compound 0.01 µM); 99.9% (second compound 0.0316 µM, first compound 0.0316 µM); 99% (second compound 0.0316 µM, first compound 0.1 µM). Further, the viability, T/C (second compound 0.1 µM, first compound 0.000316 µM) was 113%; the viability, T/C (second compound 0.1 µM, first compound 0.001 µM) is 101%; the viability, T/C (second compound 0.1 µM, first compound 0.00316 µM) is 79.5%; the viability, T/C (second compound 0.1 µM, first compound 0.01 µM) is 84.9%; the viability, T/C (second compound 0.1 µM, first compound 0.0316 µM) is 91.2%; the viability, T/C (second compound 0.1 µM, first compound 0.1 µM) is 83.2%. Further, the viability, T/C is 88.3% (second compound 0.316 µM, first compound 0.000316 µM); 85% (second compound 0.316 µM, first compound 0.001 µM); 84.1% (second compound 0.316 µM, first compound 0.00316 µM); 89.8% (second compound 0.316 µM, first compound 0.01 µM); 90.8% (second compound 0.316 µM, first compound 0.0316 µM); 77.3% (second compound 0.316 µM, first compound 0.1 µM). The viability, T/C (second compound 1 µM, first compound 0.000316 µM) is 76.6%; the viability, T/C (second compound 1 µM, first compound 0.001 µM) was 70.9%; the viability, T/C (second compound 1 µM, first compound 0.00316 µM) is 78.5%; the viability, T/C (second compound 1 µM, first compound 0.01 µM) is 77.9%; the viability, T/C (second compound 1 µM, first compound 0.0316 µM) is 76.7%; the viability, T/C (second compound 1 µM, first compound 0.1 µM) is 68.3%. Moreover, the viability, T/C is, setting by setting: (second compound 3.16 µM, first compound 0.000316 µM) 53.7%; (second compound 3.16 µM, first compound 0.001 µM) 69.4%; (second compound 3.16 µM, first compound 0.00316 µM) 64%; (second compound 3.16 µM, first compound 0.01 µM) 61.1%; (second compound 3.16 µM, first compound 0.0316 µM) 62%; (second compound 3.16 µM, first compound 0.1 µM) 58.4%. Moreover, the viability, T/C is, setting by setting: (second compound 10 µM, first compound 0.000316 µM) 42.5%; (second compound 10 µM, first compound 0.001 µM) 51.5%; (second compound 10 µM, first compound 0.00316 µM) 49.5%; (second compound 10 µM, first compound 0.01 µM) 44.2%; (second compound 10 µM, first compound 0.0316 µM) 55.1%; (second compound 10 µM, first compound 0.1 µM) 40.8%.

For the compound `CC(Nc1ncnc2nc[nH]c12)c1cc2cccc(Cl)c2c(=O)n1-c1ccccc1` (stereo not drawn), the viability, T/C (compound 0.0316 µM) is 99.9% [middle of 8 runs]; the viability, T/C (compound 0.1 µM) is 98% [middle of 8 runs]; the viability, T/C (compound 0.316 µM) is 97.6% [middle of 8 runs]; the viability, T/C (compound 3.16 µM) is 89.2% [middle of 8 runs]; the viability, T/C (compound 10 µM) was 95.7% [middle of 8 runs]. Also, the IC50 (compound alone, run of 06/13/2023) is greater than 10000 nM.
